Assay results taken from patent US8318807B2 (Laurus Labs Private Limited, priority 2010, dated 2012).

Assays:
[1] = Relative humidity stability over saturated salt solutions at ambient temperature, analysed by XRPD; format: physicochemical; details: for Dissociation by XRPD: 75, 94, or 98% RH after four weeks
Procedure: Relative humidity (RH) conditions were created at ambient temperatures using saturated salt solutions: NaCl ˜75%, KNO3 ˜94%, and K2SO4 ˜98%. Vials of each sample containing approximately 10 mg, were subjected to physical stability at ˜75% RH, ˜94% RH, and ˜98% RH for one day, three days, one week, and four weeks within a closed chamber. […] Upon completion of the duration allowed, the samples were immediately analyzed by XRPD.

cancer cell lines = cancer cell lines in vitro; cited from earlier work
[2] = Physical stability upon slurrying in water; format: physicochemical; details: for Behaviour upon slurrying in water: three days
Excerpt: […]. […] […]. […]

[3] = Attempted intrinsic dissolution in 900 mL water at ambient conditions; format: physicochemical; details: after 30 minutes
Procedure: Intrinsic dissolution in 900 mL water at ambient conditions was also attempted. […] Therefore, a concentration vs. time and intrinsic dissolution rate value were unobtainable at these conditions.

[4] = Powder dissolution of cocrystal 4 (attempted for cocrystal 3): slurry in water at ambient, UV at 315 nm; format: physicochemical
[5] = Physical stability at elevated temperature and/or relative humidity, analysed by XRPD; format: physicochemical
Procedure: Physical stability was evaluated at approximately 40° C., 60° C., 25° C./75% RH, 25° C./98% RH, and 40° C./75% RH and XRPD was used to detect dissociation or form conversion. Vials of each cocrystal were subjected to each condition for durations of two weeks, one month, and two months. Upon completion of the duration allowed, the samples were immediately analyzed by XRPD.

[6] = Procedure: Solubility and concentration measurements were performed using ultraviolet (UV) spectroscopy on a Spectramax Microplate Reader.
Appropriate dilutions with water were made as necessary to maintain absorbance readings within the standard curve. All experiments were repeated three times to evaluate the standard deviation, while particle size was not controlled for any of the experiments.

Row | Molecule | Results (XRPD) ([1]; 75% RH, 4 weeks) | Results (XRPD) ([1]; 94% RH, 4 weeks) | Results (XRPD) ([1]; 98% RH, 4 weeks) | Results (XRPD) ([1]; 75% RH, 1 week) | Results (XRPD) ([1]; 75% RH, 1 day) | Results (XRPD) ([1]; 75% RH, 3 days) | Results (XRPD) ([1]; 94% RH, 1 week (7 days)) | Results (XRPD) ([1]; 94% RH, 1 day) | Results (XRPD) ([1]; 94% RH, 3 days) | Results (XRPD) ([1]; 98% RH, 1 week) | Results (XRPD) ([1]; 98% RH, 1 day) | Results (XRPD) ([1]; 98% RH, 3 days) | Behaviour upon slurrying in water [2] | Dissociation by XRPD [1] | also measured
1 | COc1cc(/C=C/c2ccc(O)cc2)cc(OC)c1 [pterostilbene, trans-3,5-dimethoxy-4′-hydroxystilbene] | pterostilbene (Form I) | pterostilbene (Form I) | pterostilbene (Form I) | – | – | – | – | – | – | – | – | – | – | – | Cytotoxic activity (cancer cell lines): cytotoxic activity
2 | Cn1c(=O)c2c(ncn2C)n(C)c1=O [caffeine] | caffeine anhydrous | caffeine hydrate | caffeine hydrate | caffeine anhydrous | caffeine anhydrous | caffeine anhydrous | caffeine hydrate | caffeine anhydrous | caffeine anhydrous/caffeine hydrate | caffeine hydrate | caffeine hydrate | caffeine hydrate | – | – | Conversion to hydrate ([1]; 75% RH, up to four weeks): does not display signs of conversion; Time of partial conversion to hydrate/dihydrate ([1]; 94% RH): between one and three days; Time of (full) conversion to hydrate/dihydrate ([1]; 98% RH): less than one day
3 | COc1cc(/C=C/c2ccc(O)cc2)cc(OC)c1.Cn1c(=O)c2c(ncn2C)n(C)c1=O [cocrystal 1 (Form I), pterostilbene:caffeine] | cocrystal 1 (Form I), no caffeine hydrate | cocrystal 1 (Form I), no caffeine hydrate | – | cocrystal 1 (Form I), no caffeine hydrate | cocrystal 1 (Form I), no caffeine hydrate | cocrystal 1 (Form I), no caffeine hydrate | cocrystal 1 (Form I), no caffeine hydrate | cocrystal 1 (Form I), no caffeine hydrate | cocrystal 1 (Form I), no caffeine hydrate | – | – | – | precipitation of pterostilbene | – | Results (XRPD) ([2]; Table 19, slurry, 2 days): cocrystal 1 (Form I), no caffeine hydrate; Results (XRPD) ([1]; 75% RH, 1 week, then additional stress at 98% RH, 1 week): cocrystal 1 (Form I), no caffeine hydrate; Results (XRPD) ([1]; 75% RH, 1 day, then additional stress at 98% RH, 1 day): cocrystal 1 (Form I), no caffeine hydrate; Results (XRPD) ([1]; 94% RH, 7 days, then additional stress at 98% RH, 4 weeks): cocrystal 1 (Form I), no caffeine hydrate
4 | pterostilbene:glutaric acid [cocrystal 3] | – | – | – | – | – | – | – | – | – | – | – | – | – | no dissociation | XRPD result in intrinsic dissolution [3]: crystalline pterostilbene; Solubility relative to pterostilbene ([4]; concluded from crystalline pterostilbene being the only product after slurrying in water): greater than the solubility of pterostilbene; XRPD result after slurrying in water ([4]; water at ambient, after 5 minutes): crystalline pterostilbene; Results (by XRPD) ([5]; 25° C./75% RH, 2 weeks): cocrystal 3; Results (by XRPD) ([5]; 25° C./75% RH, 4 weeks): cocrystal 3; Results (by XRPD) ([5]; 25° C./75% RH, 8 weeks): cocrystal 3; Results (by XRPD) ([5]; 25° C./98% RH, 2 weeks): cocrystal 3; Results (by XRPD) ([5]; 25° C./98% RH, 4 weeks): cocrystal 3; Results (by XRPD) ([5]; 25° C./98% RH, 8 weeks): cocrystal 3; Results (by XRPD) ([5]; 40° C., 2 weeks): cocrystal 3; Results (by XRPD) ([5]; 40° C., 4 weeks): cocrystal 3; Results (by XRPD) ([5]; 40° C., 8 weeks): cocrystal 3; Results (by XRPD) ([5]; 40° C./75% RH, 2 weeks): cocrystal 3; Results (by XRPD) ([5]; 40° C./75% RH, 4 weeks): cocrystal 3; Results (by XRPD) ([5]; 40° C./75% RH, 8 weeks): cocrystal 3; Results (by XRPD) ([5]; 60° C., 2 weeks): cocrystal 3; Results (by XRPD) ([5]; 60° C., 4 weeks): cocrystal 3; Results (by XRPD) ([5]; 60° C., 8 weeks): cocrystal 3
5 | COc1cc(/C=C/c2ccc(O)cc2)cc(OC)c1.Cn1c(=O)c2c(ncn2C)n(C)c1=O [cocrystal 1, pterostilbene:caffeine] | – | – | – | – | – | – | – | – | – | – | – | – | – | no dissociation | –
6 | pterostilbene:carbamazepine [cocrystal 2] | cocrystal 2, no carbamazepine dihydrate | cocrystal 2, no carbamazepine dihydrate | cocrystal 2, no carbamazepine dihydrate | cocrystal 2, no carbamazepine dihydrate | cocrystal 2, no carbamazepine dihydrate | cocrystal 2, no carbamazepine dihydrate | cocrystal 2, no carbamazepine dihydrate | cocrystal 2, no carbamazepine dihydrate | cocrystal 2, no carbamazepine dihydrate | cocrystal 2, no carbamazepine dihydrate | cocrystal 2, no carbamazepine dihydrate | cocrystal 2, no carbamazepine dihydrate | stable | – | Solubility (±standard deviation) [6]: 8.5 ± 0.7 µg/mL
